Laboratory results published in ChEMBL document CHEMBL1121450, “Synthesis and antineoplastic activity of phenyl-substituted benzenesulfonylhydrazones of 2-pyridinecarboxyaldehyde 1-oxide” (1980).

What was measured:
Assay type in all cases: functional
[1] = species: Mus musculus; test: Average change in body weight from onset to termination of drug therapy in mice bearing the L1210 Leukemia at 120 mg / kg
[2] = species: Mus musculus; test: Average change in body weight from onset to termination of drug therapy in mice bearing the P388 Leukemia at 100 mg / kg
[3] = species: Mus musculus; test: The average survival time (days) of mice bearing the L1210 Leukemia at 120 mg / kg (Mice that survived more than 50 days)
[4] = species: Mus musculus; test: The average survival time(days) of mice bearing the P388 Leukemia at 100 mg / kg
[5] = species: Mus musculus; test: Average survival time (treated / control) x100 was calculated in mice bearing the P388 Leukemia at 100 mg / kg (Mice that survived more than 50 days)
[6] = species: Mus musculus; test: At the 50 day survivors of mice bearing the L1210 Leukemia at 120 mg / kg; parameters: unit not given here
[7] = species: Mus musculus; test: At the 50 day survivors of mice bearing the P388 Leukemia at 100 mg / kg (Mice that survived more than 50 days)
[8] = species: Mus musculus; test: Average survival time (treated / control) x100 was calculated in mice bearing the L1210 Leukemia at 120 mg / kg (Mice that survived more than 50 days)
[9] = species: Mus musculus; test: Average change in body weight from onset to termination of drug therapy in mice bearing the L1210 Leukemia at 80 mg / kg
[10] = species: Mus musculus; test: The average survival time (days) of mice bearing the L1210 Leukemia at 80 mg / kg
[11] = species: Mus musculus; test: Average survival time (treated / control) x100 was calculated in mice bearing the L1210 Leukemia at 80 mg / kg
[12] = species: Mus musculus; test: Average survival time (treated / control) x100 was calculated in mice bearing the P388 Leukemia at 100 mg / kg
[13] = species: Mus musculus; test: At the 50 day survivors of mice bearing the L1210 Leukemia at 80 mg / kg
[14] = species: Mus musculus; test: At the 50 day survivors of mice bearing the P388 Leukemia at 100 mg / kg; parameters: unit not given here
[15] = species: Mus musculus; test: The average survival time (days) of mice bearing the L1210 Leukemia at 100 mg / kg
[16] = species: Mus musculus; test: Average change in body weight from onset to termination of drug therapy in mice bearing the L1210 Leukemia at 100 mg / kg
[17] = species: Mus musculus; test: Average survival time (treated / control) x100 was calculated in mice bearing the L1210 Leukemia at 100 mg / kg
[18] = species: Mus musculus; test: At the 50 day survivors of mice bearing the L1210 Leukemia at 100 mg / kg; parameters: unit not given here
[19] = species: Mus musculus; test: The average survival time(days) of mice bearing the P388 Leukemia at 100 mg / kg (Mice that survived more than 50 days)
[20] = species: Mus musculus; test: The average survival time (days) of mice bearing the L1210 Leukemia at 120 mg / kg
[21] = species: Mus musculus; test: The average survival time(days) of mice bearing the P388 Leukemia at 80 mg / kg
[22] = species: Mus musculus; test: Average change in body weight from onset to termination of drug therapy in mice bearing the P388 Leukemia at 80 mg / kg
[23] = species: Mus musculus; test: Average survival time (treated / control) x100 was calculated in mice bearing the P388 Leukemia at 80 mg / kg
[24] = species: Mus musculus; test: At the 50 day survivors of mice bearing the P388 Leukemia at 80 mg / kg
[25] = species: Mus musculus; test: Average survival time (treated / control) x100 was calculated in mice bearing the L1210 Leukemia at 120 mg / kg
[26] = species: Mus musculus; test: Average change in body weight from onset to termination of drug therapy in mice bearing the L1210 Leukemia at 60 mg / kg
[27] = species: Mus musculus; test: The average survival time (days) of mice bearing the L1210 Leukemia at 60 mg / kg
[28] = species: Mus musculus; test: Average survival time (treated / control) x100 was calculated in mice bearing the L1210 Leukemia at 60 mg / kg
[29] = species: Mus musculus; test: At the 50 day survivors of mice bearing the L1210 Leukemia at 60 mg / kg
[30] = species: Mus musculus; test: The average survival time(days) of mice bearing the P388 Leukemia at 80 mg / kg (Mice that survived more than 50 days)
[31] = species: Mus musculus; test: Average survival time (treated / control) x100 was calculated in mice bearing the P388 Leukemia at 80 mg / kg (Mice that survived more than 50 days)
[32] = species: Mus musculus; test: Average change in body weight from onset to termination of drug therapy in mice bearing the P388 Leukemia at 120 mg / kg
[33] = species: Mus musculus; test: The average survival time (days) of mice bearing the L1210 Leukemia at 100 mg / kg (Mice that survived more than 50 days)
[34] = species: Mus musculus; test: The average survival time(days) of mice bearing the P388 Leukemia at 120 mg / kg (Mice that survived more than 50 days)
[35] = species: Mus musculus; test: Average survival time (treated / control) x100 was calculated in mice bearing the P388 Leukemia at 120 mg / kg (Mice that survived more than 50 days)
[36] = species: Mus musculus; test: Average survival time (treated / control) x100 was calculated in mice bearing the L1210 Leukemia at 100 mg / kg (Mice that survived more than 50 days)
[37] = species: Mus musculus; test: At the 50 day survivors of mice bearing the P388 Leukemia at 120 mg / kg
[38] = species: Mus musculus; test: The average survival time (days) of mice bearing the L1210 Leukemia at 80 mg / kg (Mice that survived more than 50 days)
[39] = species: Mus musculus; test: Average survival time (treated / control) x100 was calculated in mice bearing the L1210 Leukemia at 80 mg / kg (Mice that survived more than 50 days)

Row | Structure (SMILES) | Average change in body weight [1] | Average change in body weight [2] | Average survival [4] | T/C [5] | Survivors [6] | T/C [12] | Survivors [14] | Average survival [15] | Average change in body weight [16] | T/C [17] | Survivors [18] | other results
1 | Cc1cc(C)c(S(=O)(=O)N/N=C/c2cccc[n+]2[O-])c(C)c1 | -1% | -9.3% | 17 days | 180% | 40 |  |  |  |  |  |  | Average survival [3]: 11.3 days; Survivors [7]: 40; T/C [8]: 126%
2 | O=C(O)c1cc(S(=O)(=O)N/N=C/c2cccc[n+]2[O-])ccc1O |  | -9.8% | 13.8 days |  |  | 147% | 0 |  |  |  |  | Average change in body weight [9]: 0%; Average survival [10]: 14 days; T/C [11]: 156%; Survivors [13]: 0
3 | CN(C)c1ccc(S(=O)(=O)N/N=C/c2cccc[n+]2[O-])cc1 |  | -4.4% | 16.4 days |  |  | 174% | 0 | 16.8 days | -3.2% | 187% | 0 | 
4 | Cc1ccc(S(=O)(=O)N/N=C/c2cccc[n+]2[O-])cc1C(=O)O |  | -5.9% |  | 99% |  |  | 40 | 11.8 days | -5% | 131% | 0 | Average survival [19]: 9.3 days
5 | CC(=O)Nc1ccc(S(=O)(=O)N/N=C/c2cccc[n+]2[O-])cc1 | 0% |  |  |  | 0 |  |  |  |  |  |  | Average survival [20]: 15.2 days; Average survival [21]: 14.8 days; Average change in body weight [22]: -4.4%; T/C [23]: 157%; Survivors [24]: 0; T/C [25]: 169%
6 | O=S(=O)(N/N=C/c1cccc[n+]1[O-])c1ccc(O)cc1 |  | -15.4% | 16 days |  |  | 170% | 0 | 12.2 days | -0.8% | 136% | 0 | 
7 | O=C(O)c1ccc(S(=O)(=O)N/N=C/c2cccc[n+]2[O-])cc1 |  | -4.1% | 13.8 days |  |  | 147% | 0 |  |  |  |  | Average change in body weight [26]: 3.4%; Average survival [27]: 10.8 days; T/C [28]: 120%; Survivors [29]: 0
8 | COc1ccc(C(=O)O)cc1S(=O)(=O)N/N=C/c1cccc[n+]1[O-] |  |  |  |  |  |  |  | 11.6 days | 8.1% | 129% | 0 | Average survival [30]: 15 days; Average change in body weight [22]: -3.1%; T/C [31]: 160%; Survivors [24]: 20
9 | O=C(O)c1cccc(S(=O)(=O)N/N=C/c2cccc[n+]2[O-])c1 | -2.4% |  |  |  | 0 |  |  |  |  |  |  | Average survival [20]: 12.4 days; Average survival [21]: 13.8 days; Average change in body weight [22]: -6.5%; T/C [23]: 147%; Survivors [24]: 0; T/C [25]: 138%
10 | COc1ccc(S(=O)(=O)N/N=C/c2cccc[n+]2[O-])cc1OC |  |  |  |  |  |  |  |  | -8.7% |  | 80 | Average change in body weight [32]: -18.8%; Average survival [33]: 19 days; Average survival [34]: 11.5 days; T/C [35]: 122%; T/C [36]: 210%; Survivors [37]: 60
11 | O=C(O)Cc1ccc(S(=O)(=O)N/N=C/c2cccc[n+]2[O-])cc1 | 7.3% | -5.2% | 13.6 days |  | 0 | 145% | 0 |  |  |  |  | Average survival [20]: 10.4 days; T/C [25]: 116%
12 | COc1ccc(S(=O)(=O)N/N=C/c2cccc[n+]2[O-])c(OC)c1 |  | -10.3% |  | 226% |  |  | 20 |  |  |  |  | Average change in body weight [9]: -2.5%; Average survival [38]: 11.7 days; Average survival [19]: 21.2 days; T/C [39]: 130%; Survivors [13]: 20
13 | Cc1ccc(C(=O)O)cc1S(=O)(=O)N/N=C/c1cccc[n+]1[O-] |  | 0% |  | 180% |  |  | 20 | 12 days | 4.1% | 133% | 0 | Average survival [19]: 17 days
